Results: patent US20170333391A1, “METHOD FOR DELAYING THE ONSET OF PULMONARY FIBROSIS OR TREATING PULMONARY FIBROSIS” (EVERFRONT BIOTECH INC., priority 2016, published 2017)

Key:
TGF-β protein = TGF-β protein expression in TGF-β1-induced NHLF, western blotting (2-2); format: cell-based, human; conditions: TGF-β1-only control group = 1
Description: Normal Human lung fibroblasts (NHLF) were seeded into 6 cm culture dishes at a density of 2×10^5 cells/dish, comprising a control group and six experimental groups (7 dishes in total). The cells were cultured until the next day, and then the mediums were removed. Each group was respectively treated under the following conditions to conduct follow-up experiments: • (1) Positive control group: cells were cultured in a FGM-2 medium containing 1% serum and TGF-β1 (5 ng/ml) for 36 hours; • (2) Group I: cells were firstly cultured in a FGM-2 medium containing 1% serum and TGF-β1 (5 ng/ml) for 12 hours, and then compound (1) was added into the medium to provide a final concentration of 15 μg/ml; thereafter, the cells were cultured for another 24 hours; • (3) Group II: cells were firstly cultured in a FGM-2 medium containing 1% serum and TGF-β1 (5 ng/ml) for 12 hours, and then compound (1) was added into the medium to provide a final concentration of 25 μg/ml; thereafter, the cells were cultured for another 24 hours; • (4) Group III: cells were firstly cultured in a FGM-2 medium containing 1% serum and TGF-β1 (5 ng/ml) for 12 hours, and then compound (1) was added into the medium to provide a final concentration of 35 μg/ml; thereafter, the cells were cultured for another 24 hours; • (5) Group IV: cells were firstly cultured in a FGM-2 medium containing 1% serum and TGF-β1 (5 ng/ml) for 12 hours, and then the Pirfenidone was added into the medium to provide a final concentration of 100 μg/ml; thereafter, the cells were cultured for another 24 hours; • (6) Group V: cells were firstly cultured in a FGM-2 medium containing 1% serum and TGF-β1 (5 ng/ml) for 12 hours, and then the Pirfenidone was added into the medium to provide a final concentration of 250 μg/ml; thereafter, the cells were cultured for another 24 hours; and • (7) Group VI: cells were firstly cultured in a FGM-2 medium containing 1% serum and TGF-β1 (5 ng/ml) for 12 hours, and then the Pirfenidone was added into the medium to provide a final concentration of 500 μg/ml; thereafter, the cells were cultured for another 24 hours.
Thereafter, the proteins in the cells of each group were extracted, and the expressions of type I collagen, BMP-7 protein and TGF-β protein in the NHLF cells of each group were measured with western blotting. The results of the control group served as the basis for calculating the relative expression levels of the other groups.

[1] = tested on: C57B/L6 mice injected with Bleomycin sulfate (inducer of pulmonary fibrosis); experiment: Lung tissue slice observation (H&E stain) in Bleomycin sulfate mice; format: in vivo; conditions: compared to oil group
Description: 24 C57B/L6 mice (age: four weeks) were separated into four groups (6 mice in each group). Each group was respectively treated under the following conditions to conduct follow-up experiments: • (1) Control group (mice without pulmonary fibrosis; i.e., normal mice): 50 μl of PBS was administrated to each mouse by intratracheal injection, and then the mice were fed for 30 days; • (2) Oil group: 0.6 U/50 μl of Bleomycin sulfate (dissolved in PBS) was administrated to each mouse by intratracheal injection, and then 100 μl of olive oil was orally administrated to each mouse every day for 30 days; • (3) Low-dose group: 0.6 U/50 μl of Bleomycin sulfate (dissolved in PBS) was administrated to each mouse by intratracheal injection, and then compound (1) (10 mg/kg-body weight, prepared with olive oil to provide a final volume of 100 μl) was orally administrated to each mouse every day for 30 days; and • (4) High-dose group: 0.6 U/50 μl of Bleomycin sulfate (dissolved in PBS) was administrated to each mouse by intratracheal injection, and then compound (1) (50 mg/kg-body weight, prepared with olive oil to provide a final volume of 100 μl) was orally administrated to each mouse every day for 30 days.
After completing the measurement of the pulmonary function in Example 6, the mice were sacrificed. Pulmonary tissue samples were taken from the mice, and separated into two groups (each group comprised samples from the control group, oil group, low-dose group and high-dose group). One of the two groups was preserved at −20° C. for the follow-up experiment, and the other group was analyzed by hematoxylin-sosin stain (H&E stain).

α-SMA = α-SMA mRNA expression in NHLF, Q-PCR (3-2); format: cell-based, human; conditions: 24 hours
Description: Normal Human lung fibroblasts (NHLF) were seeded into 6-well plate at a density of 10^5 cells/well, comprising a control group and five experimental groups (6 wells in total). The cells were cultured until the next day, and then the mediums were removed. Each group was respectively treated under the following conditions to conduct follow-up experiments: • (1) Control group: cells were cultured in a FGM-2 medium containing 1% serum for 24 hours; • (2) Group α: cells were cultured in a FGM-2 medium containing 1% serum and compound (1) (5 μg/ml) for 24 hours; • (3) Group β: cells were cultured in a FGM-2 medium containing 1% serum and compound (1) (10 μg/ml) for 24 hours; • (4) Group γ: cells were cultured in a F-12K medium containing 1% serum and H2O2 (0.1 mM) for 24 hours; • (5) Group δ: cells were cultured in a F-12K medium containing 1% serum, H2O2 (0.1 mM) and compound (1) (5 μg/ml) for 24 hours; and • (6) Group ε: cells were cultured in a F-12K medium containing 1% serum, H2O2 (0.1 mM) and compound (1) (10 μg/ml) for 24 hours.
Thereafter, the total RNA of cells taken from each group were extracted, and then reverse transcription was conducted on the total RNA by using a QuantiTect Reverse Transcription Kit to obtain cDNA therefrom. A Q-PCR was then conducted on the cDNA to analyze the mRNA expression levels of genes such as α-SMA and TGF-β, wherein GAPDH gene served as an internal control. The results of the control group served as the basis for calculating the relative expression levels of the other groups.

[2] = High-dose group, compound (1) 50 mg/kg orally daily 30 days
[3] = Low-dose group, compound (1) 10 mg/kg orally daily 30 days

In the case of `CCCC=C1OC(=O)c2ccccc21` [compound (1)], the “Relative expression level (fold) TGF-β protein” value (TGF-β protein; Group I: TGF-β1 5 ng/ml 12 h, then compound (1) 15 μg/ml 24 h) is reported as 0.81 fold, the “Relative expression level (fold) TGF-β protein” value (TGF-β protein; Group II: TGF-β1 5 ng/ml 12 h, then compound (1) 25 μg/ml 24 h) is reported as 0.77 fold and the “Relative expression level (fold) TGF-β protein” value (TGF-β protein; Group III: TGF-β1 5 ng/ml 12 h, then compound (1) 35 μg/ml 24 h) is reported as 0.58 fold. For the same compound, the “alveolar wall tissue thickness (H&E stain)” value [1, 2] was “significantly thinner”, the “level of abnormal infiltration of pulmonary cells (H&E stain)” value [1, 2] was “significantly less” and the “alveolar wall tissue thickness (H&E stain)” value [1, 3] was “significantly thinner”. The “level of abnormal infiltration of pulmonary cells (H&E stain)” value [1, 3] was “significantly less”, the “Relative expression level (fold) α-SMA” value (α-SMA; Group α: mRNA, FGM-2 medium 1% serum + compound (1) 5 μg/ml, control group = 1) was 0.46 fold and the “Relative expression level (fold) α-SMA” value (α-SMA; Group β: mRNA, FGM-2 medium 1% serum + compound (1) 10 μg/ml, control group = 1) was 0.64 fold. The “Relative expression level (fold) α-SMA” value (α-SMA; Group δ: mRNA, F-12K medium 1% serum + H2O2 0.1 mM + compound (1) 5 μg/ml, control group = 1, H2O2-only group γ = 0.92) was 0.56 fold and the “Relative expression level (fold) α-SMA” value (α-SMA; Group ε: mRNA, F-12K medium 1% serum + H2O2 0.1 mM + compound (1) 10 μg/ml, control group = 1, H2O2-only group γ = 0.92) was 0.37 fold.
